Data reported in PMC7996536, “Optimization of Tilmicosin-Loaded Nanostructured Lipid Carriers Using Orthogonal Design for Overcoming Oral Administration Obstacle” (Pharmaceutics, 2021).
Values after ≈ are worked out from the molar mass of the structure shown. Structures can show the parent of a compound that is named as a salt. Where two headings read alike, the source gives them in different places.

What was measured:
[1] = Permeability of cell monolayers (tracers); format: in vitro ADME, canine; conditions: dog, 37 °C, lucifer yellow 225 µM, propranolol 100 µM
Procedure: (§1) MDCK and MDCK-chAbcg2/Abcb1 cells were seeded on 12-well Transwell® polycarbonate inserts at a density of 2 × 10^5 cells per well to constitute in vitro cell monolayer models. The apical side (AP) of the insert was filled with 0.5 mL medium, and the basolateral (BL) side was filled with 1.5 mL medium. The medium was replaced every two days. It took 5~7 days to form an intact cell monolayer.
(§2) During the cultivation, the integrity of cell monolayers was evaluated by the transepithelial electrical resistance (TEER) values measured with Epithelial Volt-Ohm Meter (Millipore, Burlington, MA, USA). Monolayers with TEER values over 500 and 1700 Ω·cm^2 of MDCK and MDCK-chAbcg2/Abcb1 cells respectively were used for drug transport experiments, and the TEER values were also checked after the transport experiment to guarantee the integrity of cell monolayers. TEER = (Rtotal − Rblank) × A (Ω·cm^2)
(§3) After a week of cultivation, the AP side was filled with 0.5 mL propranolol (100 µM) or lucifer yellow (225 µM) and 1.5 mL of Hank’s solution on the BL side for 4 h at 37 °C. The solution on the BL side was collected for fluorescence analysis. The detection wavelengths were 428/540 nm ([…]) and 290/330 nm (propranolol), respectively. The apparent permeability coefficient (Papp) was calculated according to the following equation [24]:Papp = dQ/(dt * AC0) where dQ/dt is the transport rate in the receiver solution, A is the membrane surface area, and C0 is the initial concentration in the donor compartment.

[2] = test system: MDCK-chAbcg2/abcb1 monolayers; assay: Transport mechanism of TMS-NLCs across monolayers (tracers, 4 °C, endocytosis inhibitors)
Procedure: To investigate the transport mechanism of TMS-NLCs, propranolol (100 µM) and lucifer yellow (225 µM) as the tracers were added to the AP side and co-incubated with TMS-NLCs for 4 h. The tracers that passed through monolayers to the BL side were quantified. The transport experiments of TMS-NLCs across MDCK-chAbcg2/abcb1 monolayers were also conducted at 4 °C. To get further insights into the transcellular transport of TMS-NLCs, the monolayers were pre-incubated with various endocytosis inhibitors on the AP side for 1 h and then co-incubated with TMS-NLCs for 4 h. The determination of TMS in the samples collected from the BL side was analyzed by HPLC.

[3] = test system: MDCK cell monolayers; assay: Permeability of cell monolayers (tracers); format: in vitro ADME, canine; conditions: AP to BL, 4 h, 37 °C, lucifer yellow 225 µM, propranolol 100 µM
Procedure: as §1, §2, §3

[4] = test system: MDCK-chAbcg2/Abcb1 cell monolayers; assay: Permeability of cell monolayers (tracers); format: in vitro ADME, canine; conditions: AP to BL, 4 h, 37 °C, lucifer yellow 225 µM, propranolol 100 µM
Procedure: as §1, §2, §3

[5] = In vitro drug release by the dialysis bag method; format: physicochemical; conditions: 48 h
Procedure: The in vitro drug release behavior of TMS-NLCs was carried out over 48 h by the dialysis bag method. Briefly, TMS-NLCs or the corresponding active pharmaceutical ingredient (API) of TMS (3 mL, 10 mg/mL) was added into a dialysis bag (MWCO of 100 kD, 16 mm, and 0.79 mL/cm), immersed in the simulated gastric or intestinal juice (500 mL) at 37 °C, and stirred under the magnetic stirrer with 100 rpm. At the set time, the samples (1 mL) were taken out and substituted by the same volume of fresh receptor fluids, and the TMS concentrations were detected by HPLC.
In this study, the concentrations of TMS in various media were detected with HPLC (Thermo U3000, Thermo Fisher Scientific, New York, NY, USA) with a C18 Reverse-phase column (5 µm, 4.6 mm inner diameter × 250 mm length, Agilent, Palo Alto, CA, USA). The mobile phase was acetonitrile–tetrahydrofuran–water–n-dibutylamine phosphate buffer salt solution (12:5.5:80:2.5; v/v). The column temperature was 30 °C, the injection volume was 20 µL, the UV detection wavelength was 291 nm, and the flow rate was 1 mL/min. The samples were filtered through a 0.22 µm filter membrane before HPLC analysis. The concentration of TMS was calculated using the standard curve equation (y = 31.314x − 2.0603, R^2 = 0.9999) for HPLC analysis of TMS, which had the good linear pattern over a range from 1 to 20 µg/mL as reported previously.

[6] = Bidirectional transport of API and TMS-NLCs across cell monolayers; format: in vitro ADME, canine; conditions: dog, MDCK; for Papp A→B at 4 h, 10 µg/mL / Papp B→A at 4 h, 10 µg/mL: 37 °C; for efflux ratio at 4 h, 10 µg/mL: read-out: ER
Procedure: as §1
(§4) The permeability efficiency was evaluated by comparing the bidirectional transport between API and TMS-NLCs. Briefly, apical-to-basolateral (AP→BL) and basolateral-to-apical (BL→AP) transport across monolayers was conducted by adding 10 µg/mL API or TMS-NLCs to donor compartments and incubating at 37 °C for 4 h. Then, the samples from receiver compartments were taken to analyze TMS concentrations by HPLC.
(§5) TMS is the substrate of glycoprotein (P-gp). To evaluate the inhibition effect of TMS-NLCs on P-gp mediated efflux, cell monolayers were incubated with the P-gp inhibitor verapamil (100 µM) for 1 h, and then, the medium was replaced with a mixture of verapamil and API or TMS-NLCs on one side and co-incubated for 4 h for bidirectional transport assay.
(§6) The efflux ratio (ER) and net efflux ratio (NER) values were obtained from the following equation [27, 28]:ER = Papp(BL→AP)/Papp(AP→BL) NER = ER(MDCK-chAbcg2/Abcb1)/ER(MDCK).

[7] = test system: MDCK-chAbcg2/Abcb1 cell monolayers; assay: as above; format: in vitro ADME, canine; conditions: ER(MDCK-chAbcg2/Abcb1)/ER(MDCK)
Procedure: as §1, §4, §5, §6

[8] = test system: chAbcg2/Abcb1 (P-gp); assay: as above; format: in vitro ADME, canine; conditions: dog, MDCK-chAbcg2/Abcb1; for Papp A→B at 4 h, 10 µg/mL / Papp B→A at 4 h, 10 µg/mL: 37 °C; for efflux ratio at 4 h, 10 µg/mL: read-out: ER
Procedure: as §1, §4, §5, §6

[9] = test system: MDCK cells; assay: MTT cell viability; format: cell-based, canine; conditions: up to 50 µg/mL, 4 h, Figure 4A
Procedure: (§7) MTT assay was used to evaluate cell viability. Cells were seeded on 96-well plates 1 × 10^4 cells per well, cultured for 24 h until 90% confluent, and exposed to different concentrations of NLCs for 4 h. Then, the medium was replaced with 20 µL MTT (5 mg/mL) and 180 µL serum-free medium. After incubation for 4 h, the medium containing MTT was substituted with 150 µL DMSO. The absorbance of formazan was measured by a microplate reader (BIO-RAD, Hercules, CA, USA) at 490 nm. Untreated cells were taken as the control. The cytotoxicity was expressed as the cell viability compared with the untreated cells. Similarly, the cytotoxicity of endocytosis inhibitors were also evaluated, and the concentrations of each drug were chosen on the basis of the published literature, and EIPA (50 µM), chlorpromazine (30 µM), dynasore (80 µM), and MβCD (2 mM) were used in the present study.

[10] = test system: MDCK-chAbcg2/Abcb1 cells; assay: MTT cell viability; format: cell-based, canine; conditions: up to 50 µg/mL, 4 h, Figure 4B
Procedure: as §7

[11] = test system: Escherichia coli ATCC 25922; assay: Microdilution broth MIC; format: cell-based; conditions: ATCC25922, E. coli
Procedure: (§8) Microdilution broth assay was carried out to evaluate the antibacterial activity of API and TMS-NLCs according to the guidelines of the CLSI. The minimal inhibitory concentration (MIC) was determined against 2 strains of Gram-positive bacteria and 2 strains of Gram-negative bacteria. Staphylococcus aureus QWJAB25 and Streptococcus agalactiae A27 were isolated from milk in a scale farm located in Yangzhou, Jiangsu Province in 2019. The Escherichia coli used in this study was ATCC 25922. The Salmonella Typhimurium strain 1344 was donated by Associate Professor Jian Lin from College of Life Sciences, Nanjing Agricultural University.

[12] = test system: Salmonella Typhimurium strain 1344; assay: Microdilution broth MIC; format: cell-based; conditions: Salmonella enterica; S. Typhimurium
Procedure: as §8

[13] = test system: Staphylococcus aureus QWJAB25; assay: Microdilution broth MIC; format: cell-based; conditions: S. aureus
Procedure: as §8

[14] = test system: Streptococcus agalactiae A27; assay: Microdilution broth MIC; format: cell-based; conditions: S. agalactiae
Procedure: as §8

Compound: CC(C)NCC(O)COc1cccc2ccccc12 (centres unmarked) [Propranolol, propranolol hydrochloride]
- Papp at 4 h, 100 µM ([1]; MDCK, AP to BL): 16.2 ± 0.65 ×10⁻⁶ cm/s
- Papp at 4 h, 100 µM ([1]; MDCK-chAbcg2/Abcb1, AP to BL): 17.6 ± 0.64 ×10⁻⁶ cm/s
- Papp of tracer co-incubated with TMS-NLCs versus without [2]: no significant difference

Compound: lucifer yellow
- Papp [3]: 0.22 ± 0.06 ×10^−6 cm/s
- Papp [4]: 0.13 ± 0.01 ×10^−6 cm/s
- Papp of tracer co-incubated with TMS-NLCs versus without ([2]; AP side, 4 h, Figure 5A): no significant difference

Compound: CC[C@H]1OC(=O)C[C@@H](O)[C@H](C)[C@@H](O[C@@H]2O[C@H](C)[C@@H](O)[C@H](N(C)C)[C@H]2O)[C@@H](CCN2C[C@H](C)C[C@H](C)C2)C[C@@H](C)C(=O)/C=C/C(C)=C/[C@@H]1CO[C@@H]1O[C@H](C)[C@@H](O)[C@@H](OC)[C@H]1OC [API, Tilmicosin]
- in vitro release ([5]; SGF, pH 1.2, 37 °C): ~80%
- in vitro release ([5]; SIF, pH 6.8, 37 °C): ~80%
- Papp A→B at 4 h, 10 µg/mL ([6]; with verapamil (100 µM)): 0.38 ± 0.02 ×10⁻⁶ cm/s
- Papp B→A at 4 h, 10 µg/mL ([6]; with verapamil (100 µM)): 0.41 ± 0.04 ×10⁻⁶ cm/s
- efflux ratio at 4 h, 10 µg/mL ([6]; with verapamil (100 µM)): 1.06
- Papp A→B at 4 h, 10 µg/mL ([6]; without verapamil): 0.42 ± 0.04 ×10⁻⁶ cm/s
- Papp B→A at 4 h, 10 µg/mL ([6]; without verapamil): 0.53 ± 0.02 ×10⁻⁶ cm/s
- efflux ratio at 4 h, 10 µg/mL ([6]; without verapamil): 1.27
- NER ([7]; with verapamil (100 µM)): 0.94
- NER ([7]; without verapamil): 2.07
- Papp A→B at 4 h, 10 µg/mL ([8]; with verapamil (100 µM)): 0.39 ± 0.04 ×10⁻⁶ cm/s
- Papp B→A at 4 h, 10 µg/mL ([8]; with verapamil (100 µM)): 0.39 ± 0.07 ×10⁻⁶ cm/s
- efflux ratio at 4 h, 10 µg/mL ([8]; with verapamil (100 µM)): 1
- Papp A→B at 4 h, 10 µg/mL ([8]; without verapamil): 0.4 ± 0.02 ×10⁻⁶ cm/s
- Papp B→A at 4 h, 10 µg/mL ([8]; without verapamil): 1.06 ± 0.03 ×10⁻⁶ cm/s
- efflux ratio at 4 h, 10 µg/mL ([8]; without verapamil): 2.63
- Papp at 4 °C [2]: under the detection limit
- cell viability compared to untreated cells [9]: not significantly decreased
- cell viability compared to untreated cells [10]: not significantly decreased
- MIC [11]: 16 µg/mL (≈ 18.4 µM)
- MIC [12]: 16 µg/mL (≈ 18.4 µM)
- MIC [13]: < 0.5 µg/mL
- MIC [14]: 16 µg/mL (≈ 18.4 µM)
